Measurements reported in patent publication US6916843B1, “Anti-inflammatory actions of cytochrome P450 expoxygenase-derived eicosanoids” (The United States of America as represented by the …, priority 1999, dated 2005).
“Also recorded” adds a separate entry of the source. Ends that are not written are not given here.

Assays:
[1] = test system: bovine aortic endothelial cells (BAECs); assay: Hypoxia-reoxygenation-induced cell injury in BAECs (cell number, LDH release, trypan blue); type: cell-based; conditions: for hypoxia-reoxygenation-induced cell injury, epoxide hydrolase inhibitors: DCU 10 μmol/L and elaidamide 10 μmol/L added together prior to hypoxia
Description: Effects of P450-derived arachidonic acid metabolites on hypoxia-reoxygenalion-induced injury in BAECs. BAECs, either untransfected, or 48 hours after transfection with pcDNA3.1/GFP or pcDNA3.1/CYP2J2, or 10 min after treatment with eicosanoids, epoxide hydrolase inhibitors or vehicle, were exposed to hypoxia (95% nitrogen plus 5% carbon dioxide) for 24 hours, followed by reoxygenation (95% air plus 5% carbon dioxide) for 4 hours using an environmental chamber within a 37° C. incubator. Cells maintained under continuous (28 hours) normoxic conditions served as controls.
EETs were prepared by total chemical synthesis as previously described (Corey el al., 102 J. Am. Chem. Soc. 1433-1435 (1980), Falck et al., 23 Tetrahedron Lett. 1755-1756 (1982)). DHETs were prepared by chemical hydration of EETs as described by Capdevila et al., 187 Methods Enzymol. 386-394 (1990). Synthetic EETs and DHETs were purified by reverse-phase HPLC prior to use. BAECs, grown to ˜85% confluency, were treated with either synthetic [11,12]-EET, [11,12]-DHET, or [14,15]-EET in ethanol vehicle (1 μmol/L each, final concentration) for 10 min prior to exposure to hypoxia-reoxygenation. […] Cells treated with vehicle alone served as controls.
After hypoxia-reoxygenation, the cell number was determined using a hemocytometer and the degree of cell injury was assessed by measuring lactate dehydrogenase release into the culture medium using the CytoTox 96 Non-Radioactive Cytotoxicity Assay Kit (Promega, Madison, Wis.) and by counting the number of trypan blue dye stained cells. Data are expressed as a percentage of values obtained from control cells maintained under normoxic conditions.

[2] = test system: VCAM-1 promoter; assay: VCAM-1 promoter construct activity in transiently transfected bovine aortic endothelial cells; type: cell-based; conditions: 100 μM
Text: To localize cis-acting elements in the VCAM-1 promoter that might mediate the inhibitory effects of [11,12]-EET, we transiently transfected bovine aortic endothelial cells with a -755 bp VCAM-1 promoter construct (DeCaterina et al., 96 J. Clin. Invest. 60 (1995)). Stimulation with TNF-α induced a 13-fold increase in relative VCAM-1 promoter activity that was abolished by cotreatment with [11,12]-EET. […] To confirm that the tandem κB sites in the VCAM-1 promoter are repressed by [11,12]-EET we subcloned them into a heterologous promoter construct containing the SV40 enhancer linked to the luciferase reporter gene (pκB.Luc). Stimulation of transfected endothelial cells with TNF-α induced a 6-fold increase in pκB.Luc promoter activity that was abolished by co-treatment with [11,12]-EET, but not [14,15]-EET (FIG. 2C). […] Compared to transfection with the empty pcDNA3.1 vector, overexpression of CYP2J2 decreased TNF-induced VCAM-1 and pκB.Luc promoter activity by 70-80% which were reversed in the presence of SK[…] (FIG. 2C). Neither transfection with CYP2J2 cDNA alone nor treatment with SK[…] alone affected basal promoter activity.

[3] = biological target: T1, CYP2J2 (Homo sapiens, UniProt P51589); assay: Arachidonic acid epoxygenase metabolite formation in CYP2J2-transfected bovine aortic endothelial cells (HPLC)
T1 construct: The CYP2J2 cDNA (1.9 kb) or GFP cDNA (0.75 kb) were subcloned into the plasmid pcDNA3.1; expressed in transfected cells; host or cells: bovine aortic endothelial cells (BAECs), transient transfection with pcDNA3.1/CYP2J2
T1 sequence (P51589 1-502): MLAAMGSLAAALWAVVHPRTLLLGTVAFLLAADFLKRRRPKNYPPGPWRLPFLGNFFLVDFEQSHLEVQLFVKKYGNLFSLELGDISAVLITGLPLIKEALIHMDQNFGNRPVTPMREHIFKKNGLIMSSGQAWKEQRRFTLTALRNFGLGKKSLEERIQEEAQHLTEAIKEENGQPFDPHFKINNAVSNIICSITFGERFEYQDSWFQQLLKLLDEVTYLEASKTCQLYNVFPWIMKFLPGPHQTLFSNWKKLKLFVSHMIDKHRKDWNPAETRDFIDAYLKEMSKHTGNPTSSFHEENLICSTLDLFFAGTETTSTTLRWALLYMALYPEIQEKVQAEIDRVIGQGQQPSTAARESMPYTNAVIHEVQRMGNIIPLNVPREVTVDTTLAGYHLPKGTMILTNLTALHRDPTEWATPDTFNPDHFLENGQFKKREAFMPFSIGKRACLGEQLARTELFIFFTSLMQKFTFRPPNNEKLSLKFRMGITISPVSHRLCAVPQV
Description: To study the formation of EETs by CYP2J2 in endothelial cells, we measured EET synthesis from bovine endothelial cells transfected with CYP2J2 cDNA. Early passage bovine aortic endothelial cells were grown to 60-70% confluence and transfected with either pcDNA3.1 or pcDNA3.1/CYP2J2 using Fugene™ 6 reagent (Boehringer Mannheim Corp.) according to the manufacturer's instructions. Using this method, the transfection efficiency was 10-20%. Forty-eight hours post-transfection, cells were washed twice with phosphate-buffered saline and incubated with freshly purified [^3H]arachidonic acid (185 Ci/mmol, 4-5 μCi/175 mm^2 flask) and unlabeled arachidonic acid (10 μM) was added before addition of arachidonic acid. At various time points, the media and cells were removed and extracted with diethyl ether. The combined organic phases were dried under a nitrogen stream, resolved by reverse-phase high performance liquid chromatography (HPLC) and quantified by liquid scintillation as described by Wu et al., 271 J. Biol. Chem. 3460 (1996). […]
These control GFP-transfected cells metabolized radiolabeled arachidonic acid to epoxygenase metabolites (EETs and DHETs) at a rate of ˜8 pmol/min/10^7 cells (FIG. 6). Endothelial cell arachidonic acid metabolism was determined as follows: Forty-eight hours after transfection with either pcDNA3.1/GFP or pcDNA3.1/CYP2J2, BAECs were incubated with freshly purified [5, 6, 8, 9, 11, 12, 14, 15-^3H]arachidonic acid (185 Ci/mmol, 4-5 μCi/175-mm^2 flask) in serurm-free culture medium at 37° C. for 30-120 min. […] The BAECs and culture medium were then collected and the reaction products extracted into ethyl ether, dried under a nitrogen stream, analyzed by reverse-phase HPLC, and quantified by on-line liquid scintillation using a Radiomatic Flo-One β detector (Radiomatic Instruments, Tampa, Fla.) as described (Wu et al., 271 J. Biol. Chem. 12551 (1996), Node et al., 285 Science 1276-1279 (1999)). […]

[4] = test system: NF-κB; assay: NF-κB heterologous promoter (pκB.Luc) luciferase reporter in bovine endothelial cells; type: cell-based; conditions: 100 μM
Description: (§1) FIG. 2 is a set of bar graphs of cell-surface enzyme immunoassays. […] The difference between treatment with TNF-α alone and in the presence of [11,12]-EET were statistically significant (*p<0.05, **p<0.01), OD, optical density. […] After stimulation with TNF-α (10 ng/ml) in the presence or absence of EET, promoter activity was determined relative to basal activity. *p<0.01 vs. TNF-α alone.
To localize cis-acting elements in the VCAM-1 promoter that might mediate the inhibitory effects of [11,12]-EET, we transiently transfected bovine aortic endothelial cells with a −755 bp VCAM-1 promoter construct (DeCaterina et al., 96 J. Clin. Invest. 60 (1995)). Stimulation with TNF-α induced a 13-fold increase in relative VCAM-1 promoter activity that was abolished by cotreatment with [11,12]-EET. […] To confirm that the tandem κB sites in the VCAM-1 promoter are repressed by [11,12]-EET we subcloned them into a heterologous promoter construct containing the SV40 enhancer linked to the luciferase reporter gene (pκB.Luc). Stimulation of transfected endothelial cells with TNF-α induced a 6-fold increase in pκB.Luc promoter activity that was abolished by co-treatment with [11,12]-EET, but not [14,15]-EET (FIG. 2C). […] Compared to transfection with the empty pcDNA3.1 vector, overexpression of CYP2J2 decreased TNF-induced VCAM-1 and pκB.Luc promoter activity by 70-80% which were reversed in the presence of SKF525A (FIG. 2C). Neither transfection with CYP2J2 cDNA alone nor treatment with SKF525A alone affected basal promoter activity.

[5] = test system: IκB kinase (IKK); assay: IKK activity assay with GST-IκB-α substrate, TNF-α-stimulated endothelial cells; type: biochemical, human; conditions: 100 nM, TNF-α 10 ng/ml, 15 min
Description: A set of gel shift assays was performed. […] In some assays, [11,12]-EET (100 nM) was also added directly to the IKK assay (in vitro). As a control for nonspecific phosphorylation, the assay was performed without the addition of immunoprecipitated IKK (no enzyme) or in the presence of a IκB-α mutant (ΔSer 32, Ser 36→Thr) as substrate. The assay was performed three times with similar results.
Specificity of IKB was determined by the complete absence of phosphorylation when the mutated IκB-α substrate, GST-1κB-α (Δ32,36: S→T) which cannot be phosphorylated at serine residues 32 and 36, was substituted for wild-type GST-IκB-α.

[6] = test system: VCAM-1 expression; assay: Cell-surface enzyme immunoassay of cytokine-induced VCAM-1 expression in endothelial cells; type: cell-based, human; conditions: KCa channel blocker 100 nM
Description: as §1
To determine the biological effects of EETs, we treated tumor necrosis factor alpha (TNF-α)-stimulated human endothelial cells with physiological relevant concentrations (1-100 nM) of [5,6]-EET, [8,9]-EET, [11,12]-EET, [14,15]-EET, [11,12]-DHET.

O=C(NC1CCCCC1)NC1CCCCC1 [DCU, dicyclohexylurea, reference compound]
hypoxia-reoxygenation-induced cell injury, epoxide hydrolase inhibitors [1]: significantly attenuates
hypoxia-reoxygenation-induced cell injury, epoxide hydrolase inhibitors ([1]; listed as dicyclohexylurea): limits

CCCC(C(=O)OCCN(CC)CC)(c1ccccc1)c1ccccc1 [SKF525A, reference compound]
reversal of CYP2J2-mediated decrease of VCAM-1 promoter activity [2]: reversed
inhibition of increased epoxygenase activity of CYP2J2-transfected BAECs ([3]; 100 μmol/L): inhibited
inhibition of formation of epoxygenase metabolites by CYP2J2 transfected cells ([3]; inhibitor 100 μM): > 80%
reversal of CYP2J2-mediated decrease of pκB.Luc promoter activity [4]: reversed

CCCCC/C=C\C/C=C\C/C=C\CC1OC1CCCC(=O)O (stereo not drawn) [[5,6]-EET]
inhibition of TNF-α-induced IKK activity [5]: to a lesser extent

CCCCC/C=C\C/C=C\CC1OC1C/C=C\CCCC(=O)O (stereo not drawn) [[8,9]-EET]
inhibition of TNF-α-induced IKK activity [5]: to a lesser extent

CCCCC/C=C\CC(O)C(O)C/C=C\C/C=C\CCCC(=O)O (stereo not drawn) [[11,12]-DHET]
hypoxia-reoxygenation-induced cell injury, number of trypan blue stained cells ([1]; 1 μmol/L, added 10 min prior to hypoxia (24 h hypoxia, 4 h reoxygenation)): active in attenuating; also recorded: significantly attenuates

CCCCCCCC/C=C/CCCCCCCC(N)=O [elaidamide, reference compound]
hypoxia-reoxygenation-induced cell injury, epoxide hydrolase inhibitors [1]: limits; also recorded: significantly attenuates

charybodotoxin [reference compound]
block of the inhibitory effect of [11,12]-EET on TNF-α-induced VCAM-1 expression [6]: did not block

iberiotoxin (QFTDVDCSVSKECWSVCKDLFGVDRGKCMGKKCRCYQ; not fully specified (residue 1, bridges); cysteine pairing not given here; UniProt P24663 1-37, looked up) [reference compound]
block of the inhibitory effect of [11,12]-EET on TNF-α-induced VCAM-1 expression [6]: did not block
